# Laboratory results reported in patent US10875860B2, “Azaindenoisoquinoline compounds and uses thereof” (Purdue Research Foundation, priority 2016, dated 2020).
# Read-outs that look alike come from different tables or passages of the source.
# Experiments:
# Top1 = target: T1, Top1 (Homo sapiens, UniProt P11387); test: Top1-mediated DNA cleavage assay; format: biochemical; design: Top1 inhibitory activity level / Top1 inhibitory activity score: key to the marks not given beside the values
# T1 sequence (P11387 1-765): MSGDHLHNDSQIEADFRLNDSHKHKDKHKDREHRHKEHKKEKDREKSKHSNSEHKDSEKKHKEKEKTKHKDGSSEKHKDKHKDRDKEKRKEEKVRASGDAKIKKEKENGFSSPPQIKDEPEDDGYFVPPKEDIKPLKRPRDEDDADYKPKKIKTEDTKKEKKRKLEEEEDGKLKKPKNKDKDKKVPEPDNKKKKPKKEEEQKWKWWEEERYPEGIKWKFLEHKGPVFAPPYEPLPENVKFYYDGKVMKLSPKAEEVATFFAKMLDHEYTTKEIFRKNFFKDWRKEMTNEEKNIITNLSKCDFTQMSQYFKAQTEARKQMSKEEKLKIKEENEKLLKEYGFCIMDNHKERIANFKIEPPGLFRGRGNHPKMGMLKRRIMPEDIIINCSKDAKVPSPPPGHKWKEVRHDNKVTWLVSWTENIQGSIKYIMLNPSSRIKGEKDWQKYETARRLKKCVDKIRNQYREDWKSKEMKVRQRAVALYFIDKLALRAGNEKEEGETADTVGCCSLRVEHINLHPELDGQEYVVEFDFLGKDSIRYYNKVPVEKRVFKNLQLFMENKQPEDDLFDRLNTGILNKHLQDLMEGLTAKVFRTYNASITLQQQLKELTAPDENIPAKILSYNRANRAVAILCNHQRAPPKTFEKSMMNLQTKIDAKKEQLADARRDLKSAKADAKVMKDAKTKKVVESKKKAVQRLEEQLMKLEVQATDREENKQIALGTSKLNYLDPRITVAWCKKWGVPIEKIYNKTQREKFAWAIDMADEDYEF
# Tdp1 = Tdp1 (Homo sapiens, UniProt Q9NUW8); test: Recombinant Tdp1 assay; format: biochemical
# recombinant human TDP2 = target: T2, recombinant human TDP2 (Homo sapiens, UniProt O95551); test: Recombinant Tdp2 assay; format: biochemical
# T2 sequence (O95551 1-362): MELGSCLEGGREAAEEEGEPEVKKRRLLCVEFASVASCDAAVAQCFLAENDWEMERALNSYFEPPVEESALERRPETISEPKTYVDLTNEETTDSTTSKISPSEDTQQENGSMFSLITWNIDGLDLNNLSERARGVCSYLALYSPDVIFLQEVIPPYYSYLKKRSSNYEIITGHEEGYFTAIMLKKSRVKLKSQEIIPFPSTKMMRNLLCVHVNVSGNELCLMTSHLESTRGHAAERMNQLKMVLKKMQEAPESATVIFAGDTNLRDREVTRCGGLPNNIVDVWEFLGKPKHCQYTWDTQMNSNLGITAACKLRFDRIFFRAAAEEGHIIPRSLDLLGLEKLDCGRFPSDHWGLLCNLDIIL
# Description: TDP2 reactions were carried out as described previously with the following modifications. […] Reactions were terminated and treated similarly to whole-cell extract and recombinant Tdp1 reactions (see previous paragraph).
# HCT-116 = test: NCI-60 cytotoxicity, HCT-116; format: cell-based; details: Homo sapiens, single determinations, Table 2, read-out: Cytotoxicity (GI50) Colon HCT-116
# DU-145 = test: NCI-60 cytotoxicity, DU-145; format: cell-based; details: Homo sapiens, single determinations, Table 2, read-out: Cytotoxicity (GI50) Prostate DU-145
# MCF-7 = test: NCI-60 cytotoxicity, MCF-7; details: Homo sapiens, MCF7, read-out: Cytotoxicity (GI50) Breast MCF-7
# HOP-62 = test: NCI-60 cytotoxicity, HOP-62; details: Homo sapiens, HOP-62, read-out: Cytotoxicity (GI50) Lung HOP-62
# SF-539 = test: NCI-60 cytotoxicity, SF-539; details: Homo sapiens, SF-539, read-out: Cytotoxicity (GI50) CNS SF-539
# UACC-62 = test: NCI-60 cytotoxicity, UACC-62; details: Homo sapiens, UACC-62, read-out: Cytotoxicity (GI50) Melanoma UACC-62
# OVCAR-3 = test: NCI-60 cytotoxicity, OVCAR-3; details: Homo sapiens, OVCAR-3, read-out: Cytotoxicity (GI50) Ovarian Ovcar-3
# [1] = tested on: NCI-60 panel of human cancer cell lines; test: NCI-60 screen, mean graph midpoint over all cell lines; details: Homo sapiens, read-out: Cytotoxicity (GI50) MGM
# SN12C = test: NCI-60 cytotoxicity, SN12C; details: Homo sapiens, read-out: Cytotoxicity (GI50) Renal SN12C
# [2] = DNA cleavage relative to 1 μM MJ-III-65 (19) and 1 μM camptothecin (18), Table 2
# [3] = determined in duplicate, Table 2, read-out: Enzyme Inhibitory Activity Tdp1 (IC50)
# [4] = determined in duplicate, Table 2, read-out: Enzyme Inhibitory Activity Tdp2 (IC50)
# [5] = read-out: Enzyme Inhibitory Activity Tdp1 (IC50)
# Tdp1, sequence (Q9NUW8 whole entry): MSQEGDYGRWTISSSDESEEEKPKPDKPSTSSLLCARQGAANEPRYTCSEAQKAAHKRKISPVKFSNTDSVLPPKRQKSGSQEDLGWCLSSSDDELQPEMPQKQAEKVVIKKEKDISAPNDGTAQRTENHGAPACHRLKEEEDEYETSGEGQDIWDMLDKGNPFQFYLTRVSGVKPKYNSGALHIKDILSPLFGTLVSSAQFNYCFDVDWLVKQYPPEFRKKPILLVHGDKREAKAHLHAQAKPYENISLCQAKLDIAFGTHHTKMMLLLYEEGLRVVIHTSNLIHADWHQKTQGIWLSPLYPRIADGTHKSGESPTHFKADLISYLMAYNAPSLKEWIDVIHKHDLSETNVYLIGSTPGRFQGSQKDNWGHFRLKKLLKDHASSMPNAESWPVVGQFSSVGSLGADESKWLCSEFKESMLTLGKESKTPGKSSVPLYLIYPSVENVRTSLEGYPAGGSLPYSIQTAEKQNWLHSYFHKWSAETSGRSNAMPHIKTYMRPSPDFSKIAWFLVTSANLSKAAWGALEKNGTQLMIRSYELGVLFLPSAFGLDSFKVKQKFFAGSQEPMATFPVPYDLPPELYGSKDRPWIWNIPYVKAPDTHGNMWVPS
SMILES,Enzyme Inhibitory Activity Top1 (Top1; [2]),IC50 (Tdp1; [3]),IC50 (recombinant human TDP2; [4]),GI50 (HCT-116),GI50 (DU-145),GI50 (MCF-7),GI50 (HOP-62),GI50 (SF-539),GI50 (UACC-62),GI50 (OVCAR-3),GI50 [1],"Top1 inhibitory activity score (Top1; running text b88 on series 2, tested at 0.1, 1, 10 and 100 μM)",IC50 (Tdp1; [5]),GI50 (SN12C),"Enzyme Inhibitory Activity Top1 (Top1; DNA cleavage relative to 1 μM MJ-III-65 (19) and 1 μM camptothecin (18), Table 1)",IC50 (Tdp1),IC50 (recombinant human TDP2),Enzyme Inhibitory Activity Top1 (Top1),"IC50 (Tdp1; semiquantitative scale, in duplicate, Table 1, read-out: Enzyme Inhibitory Activity Tdp1)","IC50 (recombinant human TDP2; semiquantitative scale, in duplicate, Table 1, read-out: Enzyme Inhibitory Activity Tdp2)"
"COc1cnc2c(c1)C(=O)c1c-2n(CCCN2CCOCC2)c(=O)c2cc(Cl)ccc12 [Compound 16a, 3-Chloro-9-methoxy-6-(3-morpholinopropyl)-5H-pyrido[3′,2′:4,5]cyclopenta[1,2-c]isoquinoline-5,11(6H)-dione]",+++,> 111000 nM,> 111000 nM,160 nM,410 nM,90 nM,270 nM,230 nM,180 nM,780 nM,100 nM,,,,,,,,,
"COc1cnc2c(c1)C(=O)c1c-2n(CCCn2ccnc2)c(=O)c2cc(Cl)ccc12 [Compound 16b, 6-(3-(1H-Imidazol-1-yl)propyl)-3-chloro-9-methoxy-5H-pyrido[3′,2′:4,5]cyclopenta[1,2-c]isoquinoline-5,11(6H)-dione]",+++,> 111000 nM,> 111000 nM,14 nM,43 nM,< 10 nM,20 nM,38 nM,28 nM,120 nM,63 nM,,,,,,,,,
"COc1cnc2c(c1)C(=O)c1c-2n(CCCN2CCC(O)CC2)c(=O)c2cc(Cl)ccc12 [Compound 16d, 3-Chloro-6-(3-(4-hydroxypiperidin-1-yl)propyl)-9-methoxy-5H-pyrido[3′,2′:4,5]cyclopenta-[1,2-c]isoquinoline-5,11(6H)-dione]",++++,14000 ± 1000 nM,> 111000 nM,98 nM,270 nM,42 nM,94 nM,430 nM,190 nM,1420 nM,660 nM,++++,,,,,,,,
"COc1cnc2c(c1)C(=O)c1c-2n(CCCN2CCNCC2)c(=O)c2cc(Cl)ccc12 [Compound 16e, 3-Chloro-9-methoxy-6-(3-(piperazin-1-yl)propyl)-5H-pyrido[3′,2′:4,5]cyclopenta[1,2-c]isoquinoline-5,11(6H)-dione]",+,,> 111000 nM,298 nM,242 nM,89 nM,200 nM,1330 nM,1430 nM,1430 nM,580 nM,,20200 ± 3700 nM,489 nM,,,,,,
"COc1cnc2c(c1)C(=O)c1c-2n(CCCNC(C)C)c(=O)c2cc(Cl)ccc12 [Compound 16f, 3-Chloro-9-methoxy-6-(3-(isopropylamino)propyl)-5H-pyrido[3′,2′:4,5]cyclopenta[1,2-c]isoquinoline-5,11(6H)-dione]",++,33300 ± 4200 nM,> 111000 nM,138 nM,173 nM,37 nM,70 nM,554 nM,303 nM,1390 nM,380 nM,,,417 nM,,,,,,
"CCNCCCn1c2c(c3ccc(Cl)cc3c1=O)C(=O)c1cc(OC)cnc1-2 [Compound 16h, 3-Chloro-9-methoxy-6-(3-(ethylamino)propyl)-5H-pyrido[3′,2′:4,5]cyclopenta[1,2-c]isoquinoline-5,11(6H)-dione]",,22200 ± 6400 nM,,203 nM,208 nM,< 10 nM,122 nM,506 nM,532 nM,2130 nM,426 nM,,,675 nM,,,,,,
"COc1cnc2c(c1)C(=O)c1c-2n(CCCN2CCCC2)c(=O)c2cc(Cl)ccc12 [Compound 16i, 3-Chloro-9-methoxy-6-(3-(pyrrolidin-1-yl)propyl)-5H-pyrido[3′,2′:4,5]cyclopenta[1,2-c]isoquinoline-5,11(6H)-dione]",,,,,,,,,,,,,27500 ± 600 nM,,,,,,,
"COc1cnc2c(c1)C(=O)c1c-2n(CCCN2CCN(C)CC2)c(=O)c2cc(Cl)ccc12 [Compound 16j, 3-Chloro-9-methoxy-6-(3-(4-methylpiperazin-1-yl)propyl)-5H-pyrido[3′,2′:4,5]cyclopenta[1,2-c]isoquinoline-5,11(6H)-dione]",+,> 111000 nM,,980 nM,3180 nM,487 nM,950 nM,2150 nM,1810 nM,15100 nM,2950 nM,,,10200 nM,,,,,,
"COc1cnc2c(c1)C(=O)c1c-2n(CCCN2CCOCC2)c(=O)c2cc(F)ccc12 [Compound 17a, 3-Fluoro-9-methoxy-6-(3-morpholinopropyl)-5H-pyrido[3′,2′:4,5]cyclopenta[1,2c]-isoquinoline-5,11(6H)-dione]",+++,> 111000 nM,> 111000 nM,115 nM,341 nM,44 nM,187 nM,228 nM,235 nM,250 nM,269 nM,,,320 nM,,,,,,
"COc1cnc2c(c1)C(=O)c1c-2n(CCCn2ccnc2)c(=O)c2cc(F)ccc12 [Compound 17b, 6-(3-(1H-Imidazol-1-yl)propyl)-3-fluoro-9-methoxy-5H-pyrido[3′,2′:4,5]-cyclo-penta[1,2-c]isoquinoline-5,11(6H)-dione]",+++,> 111000 nM,> 111000 nM,< 10 nM,< 10 nM,< 10 nM,< 10 nM,24 nM,16 nM,43 nM,33 nM,,,< 10 nM,,,,,,
"CC[C@@]1(O)C(=O)OCc2c1cc1n(c2=O)Cc2cc3ccccc3nc2-1 [Compound 18, camptothecin, reference compound]",,,,,,13 nM,< 10 nM,< 10 nM,< 10 nM,,40 nM,,,20 nM,++++,> 111000 nM,> 111000 nM,,,
"COc1cc2c3c(n(CCCNCCO)c(=O)c2cc1OC)-c1cc2c(cc1C3=O)OCO2 [Compound 19, reference compound]",,,,,,< 10 nM,20 nM,40 nM,30 nM,500 nM,210 nM,,,< 10 nM,,,,++++,12000 to 111000 nM,1000 to 12000 nM
